Patent EP0280051A1, “ACV synthetase” (QUEEN'S UNIVERSITY AT KINGSTON, priority 1987, dated 1988)

Molecular target: ACV-synthetase of C. acremonium C-10 (Hapsidospora chrysogena, UniProt P25464)
Assay: Cell-free ACV synthetase reaction (desalted extract, HPLC analysis after monobromobimane derivatization)
Type: biochemical
Conditions: for inhibition of ACV-synthetase: qualitative, concentration not clearly stated for the inhibitors
Description: a Typical reaction mixtures contained desalted extract (about 0.5 mg protein), 20 µg cycloheximide, 10 mM ATP, 10 mM MgC12, 5 mM dithiothreitol, 5 mM L-α-aminoadipic acid, I mM L -cysteine and 5 mM L -valine, all components dissolved in 100 µl of 100 mM MOPS/KOH at pH 7.5. Reactions were performed at 25°C in a water bath shaker, and terminated by addition of 25 µl of 20% trichloroacetic acid. Precipitated protein was removed by centrifugation, and the supernatant stored at -20°C prior to analysis. (MOPS = 3-[N-Morpholino] propanesulfonic acid, - a biological buffer available from Sigma Chemical Co.
Mycelia from Example 1 were washed twice with cold 50 mM Tris/HC1 buffer (pH 7.2) containing 100 mM KC1. After centrifugation, the pellet was resuspended in a volume of cold 100 mM MOPS/KOH buffer (pH 7.2) equal to twice the pellet volume; the buffer also contained 50 mM KCI, 30 mM 2-mercaptoethanol, 20 mM EDTA and 50% glycerol (v/v). The cells were disrupted in a French Press (Aminco) at 8000 psi and the debris removed by centrifugation (30,000×g, 15 min). The clear yellow supernatant fluid was stored at -20°C or immediately desalted by passage through a Sephadex G-15 column using an elution buffer of 100 mM MOPSiKOH (pH 7.2) containing 50 mM KCI and 20% glycerol (v/v). The resulting solution contained 10 to 20 mg protein per ml and was either used immediately for the cell-free reaction or frozen for future use.
Stored frozen extract (from Example 2) was thawed, desalted over Sephadex eG-15, and eluted with 100 mM MOPS/KOH at pH 7.5. Typical reaction mixtures contained desalted extract (about 0.5 mg protein), 20 µg cycloheximide, 10 mM ATP, 10 mM MgCI2, 5 mM dithiothreitol, 5 mM L-α-aminoadipic acid, 1 mM L -cysteine and 5 mM L-valine, all components dissolved in 100 µl of 100 mM MOPS/KOH at pH 7.5. Reactions were performed at 25°C in a water bath shaker, and terminated by addition of 25 µl of 20% trichloroacetic acid. Precipitated protein was removed by centrifugation, and the supernatant stored at -20°C prior to analysis.
Analyses were performed following derivatization with monobromobimane: to a 20 I sample were added successively 2 µl of 3M KOH, 4 µl of 0.03M dithiothreitol in 2M NH4HCO3 (pH 8.2), and 4 µl of 0.3M monobromobimane in acetonitrile. This mixture was stored for 15 min. in the dark, and then extracted with methylene chloride (4 × 200 I). Five µl of 1 M citric acid (pH 2.2) was added, and 25 µl of this final solution was injected into the HPLC apparatus.
The HPLC analysis employed two solutions, viz., A, 880 mg for pentanesulfonic acid, 2.5 ml of acetic acid in I liter H20 (pH 3.6); B, 880 mg of pentanesulfonic acid, 2.5 ml acetic acid, 50 ml water and 950 ml acetonitrile. […]

Chain of ACV-synthetase of C. acremonium C-10 (P25464 whole entry): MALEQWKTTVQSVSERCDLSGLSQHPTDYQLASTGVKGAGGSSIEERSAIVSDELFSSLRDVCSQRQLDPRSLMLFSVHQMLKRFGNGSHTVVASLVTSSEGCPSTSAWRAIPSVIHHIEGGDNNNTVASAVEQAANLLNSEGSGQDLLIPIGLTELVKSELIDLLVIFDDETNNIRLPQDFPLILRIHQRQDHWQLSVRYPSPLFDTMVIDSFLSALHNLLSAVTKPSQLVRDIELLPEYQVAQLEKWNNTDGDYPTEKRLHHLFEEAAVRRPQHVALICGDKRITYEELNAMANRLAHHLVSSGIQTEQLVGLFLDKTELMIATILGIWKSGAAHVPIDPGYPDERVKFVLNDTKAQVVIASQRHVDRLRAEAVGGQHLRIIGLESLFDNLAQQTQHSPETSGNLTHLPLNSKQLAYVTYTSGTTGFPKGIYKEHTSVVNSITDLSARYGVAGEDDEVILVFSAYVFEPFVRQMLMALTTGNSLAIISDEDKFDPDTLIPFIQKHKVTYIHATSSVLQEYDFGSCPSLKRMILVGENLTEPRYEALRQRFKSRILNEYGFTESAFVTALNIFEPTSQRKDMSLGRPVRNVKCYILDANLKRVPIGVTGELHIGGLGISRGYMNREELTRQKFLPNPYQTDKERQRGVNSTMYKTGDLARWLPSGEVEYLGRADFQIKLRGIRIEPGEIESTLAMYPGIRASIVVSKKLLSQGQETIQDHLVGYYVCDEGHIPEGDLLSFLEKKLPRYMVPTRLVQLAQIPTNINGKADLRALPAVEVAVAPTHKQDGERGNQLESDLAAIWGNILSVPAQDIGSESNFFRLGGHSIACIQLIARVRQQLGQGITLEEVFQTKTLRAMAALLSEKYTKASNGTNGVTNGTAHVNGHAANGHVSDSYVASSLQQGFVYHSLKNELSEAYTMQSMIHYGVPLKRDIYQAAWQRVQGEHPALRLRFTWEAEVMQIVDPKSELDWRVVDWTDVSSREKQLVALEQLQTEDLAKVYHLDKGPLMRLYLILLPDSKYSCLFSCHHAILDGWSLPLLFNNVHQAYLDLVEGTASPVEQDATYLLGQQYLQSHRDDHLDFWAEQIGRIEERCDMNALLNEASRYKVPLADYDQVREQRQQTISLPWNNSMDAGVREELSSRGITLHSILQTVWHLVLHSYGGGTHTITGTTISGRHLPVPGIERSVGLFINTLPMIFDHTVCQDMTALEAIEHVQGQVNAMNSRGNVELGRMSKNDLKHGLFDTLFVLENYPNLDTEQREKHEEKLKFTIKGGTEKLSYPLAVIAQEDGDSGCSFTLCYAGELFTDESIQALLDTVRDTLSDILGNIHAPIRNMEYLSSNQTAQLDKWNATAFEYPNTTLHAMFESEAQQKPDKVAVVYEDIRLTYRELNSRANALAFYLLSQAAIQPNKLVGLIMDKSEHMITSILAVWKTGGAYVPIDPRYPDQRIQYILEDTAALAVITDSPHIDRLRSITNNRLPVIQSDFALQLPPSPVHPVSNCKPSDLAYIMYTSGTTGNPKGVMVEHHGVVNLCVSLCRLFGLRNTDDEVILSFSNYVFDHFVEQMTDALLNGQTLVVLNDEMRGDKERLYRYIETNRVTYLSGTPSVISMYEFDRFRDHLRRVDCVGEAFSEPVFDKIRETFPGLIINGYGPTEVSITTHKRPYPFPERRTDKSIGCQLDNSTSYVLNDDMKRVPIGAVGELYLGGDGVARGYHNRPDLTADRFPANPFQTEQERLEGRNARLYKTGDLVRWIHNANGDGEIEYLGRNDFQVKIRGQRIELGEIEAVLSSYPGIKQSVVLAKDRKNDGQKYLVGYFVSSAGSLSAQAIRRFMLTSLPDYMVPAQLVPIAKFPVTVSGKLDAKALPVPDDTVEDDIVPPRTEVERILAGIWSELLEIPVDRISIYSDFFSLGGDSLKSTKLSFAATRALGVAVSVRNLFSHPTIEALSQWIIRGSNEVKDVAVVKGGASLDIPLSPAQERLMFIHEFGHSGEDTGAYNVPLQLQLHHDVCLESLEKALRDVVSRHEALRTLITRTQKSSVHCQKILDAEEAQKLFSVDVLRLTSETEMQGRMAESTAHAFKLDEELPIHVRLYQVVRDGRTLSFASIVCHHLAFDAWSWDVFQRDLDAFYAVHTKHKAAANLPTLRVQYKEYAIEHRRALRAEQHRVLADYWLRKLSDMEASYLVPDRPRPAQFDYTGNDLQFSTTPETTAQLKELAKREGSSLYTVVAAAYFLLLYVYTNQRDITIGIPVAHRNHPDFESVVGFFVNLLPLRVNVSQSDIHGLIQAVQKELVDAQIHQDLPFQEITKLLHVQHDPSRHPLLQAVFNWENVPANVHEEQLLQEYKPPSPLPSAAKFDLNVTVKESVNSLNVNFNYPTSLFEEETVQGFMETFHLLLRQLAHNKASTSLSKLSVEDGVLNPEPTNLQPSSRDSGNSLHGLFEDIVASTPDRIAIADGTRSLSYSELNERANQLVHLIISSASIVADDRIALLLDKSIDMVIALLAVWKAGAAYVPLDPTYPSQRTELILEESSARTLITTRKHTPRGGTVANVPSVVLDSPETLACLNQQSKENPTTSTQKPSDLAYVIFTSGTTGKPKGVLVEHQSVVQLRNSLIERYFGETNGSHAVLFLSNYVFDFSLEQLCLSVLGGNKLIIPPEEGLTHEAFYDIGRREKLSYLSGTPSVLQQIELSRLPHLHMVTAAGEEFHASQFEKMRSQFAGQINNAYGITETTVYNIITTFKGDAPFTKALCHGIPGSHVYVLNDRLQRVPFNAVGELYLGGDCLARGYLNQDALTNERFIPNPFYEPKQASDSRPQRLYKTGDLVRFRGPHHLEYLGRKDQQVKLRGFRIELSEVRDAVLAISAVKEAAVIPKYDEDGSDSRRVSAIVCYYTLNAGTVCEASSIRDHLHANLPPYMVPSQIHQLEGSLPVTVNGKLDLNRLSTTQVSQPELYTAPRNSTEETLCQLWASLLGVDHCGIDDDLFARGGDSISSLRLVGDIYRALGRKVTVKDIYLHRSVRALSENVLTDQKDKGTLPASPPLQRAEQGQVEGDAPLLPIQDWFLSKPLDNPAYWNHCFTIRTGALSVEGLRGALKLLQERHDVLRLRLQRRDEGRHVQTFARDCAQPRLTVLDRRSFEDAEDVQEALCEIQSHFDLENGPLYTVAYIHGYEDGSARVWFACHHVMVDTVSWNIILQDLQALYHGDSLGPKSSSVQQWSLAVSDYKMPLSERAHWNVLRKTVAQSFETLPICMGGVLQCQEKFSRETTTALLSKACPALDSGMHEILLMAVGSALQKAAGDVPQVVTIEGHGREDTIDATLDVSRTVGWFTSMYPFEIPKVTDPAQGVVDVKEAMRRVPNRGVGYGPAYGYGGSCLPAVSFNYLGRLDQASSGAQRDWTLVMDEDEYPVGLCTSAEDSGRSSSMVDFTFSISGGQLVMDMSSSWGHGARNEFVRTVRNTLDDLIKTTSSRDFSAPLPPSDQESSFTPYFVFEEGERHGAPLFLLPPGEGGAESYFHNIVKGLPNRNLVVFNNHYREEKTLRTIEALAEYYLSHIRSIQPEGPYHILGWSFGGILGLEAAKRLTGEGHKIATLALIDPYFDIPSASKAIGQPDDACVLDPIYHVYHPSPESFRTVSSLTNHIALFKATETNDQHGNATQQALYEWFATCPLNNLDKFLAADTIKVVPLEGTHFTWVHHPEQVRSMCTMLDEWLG

Compound | inhibition of ACV-synthetase | effect on LLD-ACV synthesis (added as a fourth amino acid, concentration not given)
Fructose-1.6-diphosphate | inhibit | –
orthophosphate | inhibit | –
NCC(=O)O [glycine] | – | unaffected
glucose-1-phosphate | inhibit | –
